Test results: US20200339548A1, “PYRIMIDINE DERIVATIVES AND THEIR USE FOR THE TREATMENT OF CANCER” (Adorx Therapeutics Limited, priority 2017, published 2020)
Where two headings read alike, the source gives them in different places.

How the values were obtained:
Adenosine A2a receptor = biological target: T1, Adenosine A2a receptor (Homo sapiens, UniProt P29274); assay: Adenosine receptor TR-FRET binding assay, A2a; settings: displacement of 100 nM CA200645, CHO cell membranes
T1 construct: expressed in transfected cells; host or cells: CHO cell membranes
Description: (§1) All FRET binding experiments were conducted at room temperature in white 384-well plates, in assay binding buffer containing 1× LabMed (Cisbio, France), 100 μg/mL saponin, 1% DMSO and 0.02% pluronic acid. Binding of the fluorescently labelled Adenosine receptor antagonist XAC (CA200645, FRET acceptor) to terbium-labelled A1, A2a, A2b and A3 adenosine receptors (FRET donors) was detected by time-resolved FRET due to the close proximity of the donor and acceptor in a binding event. To investigate the ability of unlabelled test compounds to bind to Adenosine A1, A2a, A2b and A3 receptors, dose response curves were constructed that determined the ability of a range of concentrations to inhibit the binding of 30 nM CA200645 to the A2b receptor and 100 nM CA200645 to the A1, A2a, and A3 receptor.
(§2) Serial dilution (1:3 dilutions) of test compounds in neat DMSO and transfer of a 400 nL sample of test compound into the assay plate was carried out using the Mosquito (TTP Labtech, UK). The compound samples were incubated for 2 hours at room temperature with a fixed concentration of CA200645 defined for each receptor (see above) and CHO cell membranes containing the human Adenosine A1 (0.5 μg/well), A2a (0.3 μg/well), A2b (1 μg/well) or A3 (1 μg/well) receptor in 40 μL of assay buffer. Total and non-specific binding of CA200645 was determined in the absence and presence of 10 μM XAC, respectively.
(§3) Following 2 hours incubation, the level of CA200645 binding was detected on a Pherastar FSX (BMG Labtech, Germany) using standard TR-FRET settings. The terbium donor was excited with three laser flashes at a wavelength of 337 nm, and donor and acceptor emission was detected at 620 nm and 665 nm wavelengths, respectively. FRET ratios were obtained by multiplying the acceptor/donor ratio value by 10,000. Specific binding was determined by subtracting the non-specific binding FRET ratio from the total binding FRET ratio. Compound IC50 curves were analysed using GraphPad Prism 7.0 (GraphPad, USA) and Ki affinity values were determined from the obtained […] values using the method of Cheng and Prusoff.

Adenosine A2b receptor = biological target: T2, Adenosine A2b receptor (Homo sapiens, UniProt P29275); assay: Adenosine receptor TR-FRET binding assay, A2b; settings: Table 9, further testing; displacement of 30 nM CA200645, CHO cell membranes
T2 construct: expressed in transfected cells; host or cells: CHO cell membranes
T2 sequence (P29275 1-332): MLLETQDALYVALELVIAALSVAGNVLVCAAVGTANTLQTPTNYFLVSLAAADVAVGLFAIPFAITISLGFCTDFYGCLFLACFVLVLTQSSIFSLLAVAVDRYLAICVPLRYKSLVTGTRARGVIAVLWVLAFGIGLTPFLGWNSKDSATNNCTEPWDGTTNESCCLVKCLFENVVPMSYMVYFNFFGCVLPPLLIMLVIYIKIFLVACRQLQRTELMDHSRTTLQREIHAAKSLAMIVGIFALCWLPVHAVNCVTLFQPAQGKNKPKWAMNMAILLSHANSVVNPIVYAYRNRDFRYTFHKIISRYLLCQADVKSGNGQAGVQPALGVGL
Description: as §1, §2, §3

Adenosine A1 receptor = biological target: T3, Adenosine A1 receptor (Homo sapiens, UniProt P30542); assay: Adenosine receptor TR-FRET binding assay, A1; settings: Table 9, further testing; displacement of 100 nM CA200645, CHO cell membranes
T3 construct: expressed in transfected cells; host or cells: CHO cell membranes
T3 sequence (P30542 1-326): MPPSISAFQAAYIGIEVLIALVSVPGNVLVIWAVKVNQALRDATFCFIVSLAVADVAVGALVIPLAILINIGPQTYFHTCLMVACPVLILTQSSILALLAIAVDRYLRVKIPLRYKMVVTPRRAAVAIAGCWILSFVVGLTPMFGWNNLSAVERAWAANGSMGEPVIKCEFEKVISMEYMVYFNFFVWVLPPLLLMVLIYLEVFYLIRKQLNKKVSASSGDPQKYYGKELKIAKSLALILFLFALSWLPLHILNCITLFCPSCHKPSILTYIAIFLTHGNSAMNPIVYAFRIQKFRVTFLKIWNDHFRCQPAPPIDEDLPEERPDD
Description: as §1, §2, §3

Adenosine A3 receptor = biological target: T4, Adenosine A3 receptor (Homo sapiens, UniProt P0DMS8); assay: Adenosine receptor TR-FRET binding assay, A3
T4 construct: expressed in transfected cells; host or cells: CHO cell membranes
T4 sequence (P0DMS8 1-318): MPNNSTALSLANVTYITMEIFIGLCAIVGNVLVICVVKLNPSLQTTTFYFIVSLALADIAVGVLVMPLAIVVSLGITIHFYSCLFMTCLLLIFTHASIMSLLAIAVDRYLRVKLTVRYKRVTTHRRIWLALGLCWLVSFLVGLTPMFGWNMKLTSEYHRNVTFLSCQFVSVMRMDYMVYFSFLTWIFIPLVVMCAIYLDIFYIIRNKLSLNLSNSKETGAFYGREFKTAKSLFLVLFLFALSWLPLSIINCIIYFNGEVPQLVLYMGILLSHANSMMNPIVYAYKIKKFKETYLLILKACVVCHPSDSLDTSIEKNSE
Description: as §1, §2, §3

[1] = Table 9, further testing, displacement of 100 nM CA200645, CHO cell membranes, read-out: A3 Ki

T1 sequence (P29274 whole entry): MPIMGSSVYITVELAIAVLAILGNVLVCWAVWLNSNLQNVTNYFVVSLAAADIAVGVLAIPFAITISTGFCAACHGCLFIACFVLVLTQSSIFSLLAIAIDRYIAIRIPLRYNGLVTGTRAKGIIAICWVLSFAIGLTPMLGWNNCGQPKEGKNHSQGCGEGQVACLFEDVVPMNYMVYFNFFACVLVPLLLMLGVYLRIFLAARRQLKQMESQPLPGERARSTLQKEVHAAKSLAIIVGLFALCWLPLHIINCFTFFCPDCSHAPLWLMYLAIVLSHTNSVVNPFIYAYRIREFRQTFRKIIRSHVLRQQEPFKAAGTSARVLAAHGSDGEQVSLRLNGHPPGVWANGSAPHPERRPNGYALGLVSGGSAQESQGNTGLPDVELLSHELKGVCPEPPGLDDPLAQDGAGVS

| SMILES | Ki (Adenosine A2a receptor; Table 8, Cheng and Prusoff) | Ki (Adenosine A2a receptor; Table 9, further testing) | Ki (Adenosine A2b receptor) | Ki (Adenosine A1 receptor) | Ki (Adenosine A3 receptor; [1]) | Ki (Adenosine A3 receptor) |
| --- | --- | --- | --- | --- | --- | --- |
| CCOC(=O)c1nnc(-c2ccco2)nc1N [Example 1, Ethyl 5-amino-3-(2-furyl)-1,2,4-triazine-6-carboxylate] | 0.06 µM | 0.061 µM | 0.382 µM | 0.314 µM | 0.101 µM | – |
| Cc1ccc(-c2ncc(C(=O)NCc3ncccc3C)c(N)n2)o1 [Example 3.1, 4-Amino-2-(5-methyl-2-furyl)-N-[(3-methyl-2-pyridyl)methyl]pyrimidine-5-carboxamide] | – | 0.424 µM | 5.54 µM | 0.995 µM | 0.818 µM | – |
| Nc1nc(-c2ccco2)ncc1C(=O)NCc1cccc(F)c1 [Example 5.13, 4-Amino-N-[(3-fluorophenyl)methyl]-2-(2-furyl)pyrimidine-5-carboxamide] | 0.02 µM | 0.02 µM | 3.97 µM | 3.55 µM | 2.68 µM | – |
| Nc1nc(-c2ccco2)ncc1C(=O)NCc1ccccc1Cl [Example 5.15, 4-Amino-N-[(2-chlorophenyl)methyl]-2-(2-furyl)pyrimidine-5-carboxamide] | 0.0051 µM | 0.0051 µM | 1.21 µM | 3.99 µM | 2.17 µM | – |
| CCn1ccnc1CNC(=O)c1cnc(-c2ccco2)nc1N [Example 5.26, 4-Amino-N-[(1-ethylimidazol-2-yl)methyl]-2-(2-furyl)pyrimidine-5-carboxamide] | 0.024 µM | 0.024 µM | 4.69 µM | 4.86 µM | 6.03 µM | – |
| Nc1nc(-c2ccco2)ncc1C(=O)NCc1cccc(C(F)(F)F)c1 [Example 5.29, 4-Amino-2-(2-furyl)-N-[[3-(trifluoromethyl)phenyl]methyl]pyrimidine-5-carboxamide] | 0.052 µM | 0.052 µM | 5.47 µM | 1.7 µM | 2.46 µM | – |
| Nc1nc(-c2ccco2)ncc1C(=O)NCc1ncccc1C(F)(F)F [Example 5.30, 4-Amino-2-(2-furyl)-N-[[3-(trifluoromethyl)-2-pyridyl]methyl]pyrimidine-5-carboxamide] | – | 0.0027 µM | 2.35 µM | 4.75 µM | – | 2.3 µM |
| Cc1cccc(CNC(=O)c2cnc(-c3ccco3)nc2N)n1 [Example 5.32, 4-Amino-2-(2-furyl)-N-[(6-methyl-2-pyridyl)methyl]pyrimidine-5-carboxamide] | – | 0.0033 µM | 0.437 µM | 1.89 µM | 1.41 µM | – |
| Cc1cccc(CNC(=O)c2cnc(-c3ccco3)nc2N)c1 [Example 5.34, 4-Amino-2-(2-furyl)-N-(m-tolylmethyl) pyrimidine-5-carboxamide] | – | 0.01 µM | 1.41 µM | 1.04 µM | 1.91 µM | – |
| Nc1nc(-c2ccco2)ncc1C(=O)NCc1ccccc1C(F)F [Example 5.35, 4-Amino-N-[[2-(difluoromethyl)phenyl]methyl]-2-(2-furyl)pyrimidine-5-carboxamide] | – | 0.012 µM | 1.33 µM | 2.62 µM | 2.8 µM | – |
| Cc1cc(C)cc(CNC(=O)c2cnc(-c3ccco3)nc2N)c1 [Example 5.39, 4-Amino-N-[(3,5-dimethylphenyl)methyl]-2-(2-furyl)pyrimidine-5-carboxamide] | – | 0.021 µM | 2.13 µM | 0.521 µM | 0.753 µM | – |
| COc1cc(CNC(=O)c2cnc(-c3ccco3)nc2N)cc(OC)c1 [Example 5.43, 4-Amino-N-[(3,5-dimethoxyphenyl)methyl]-2-(2-furyl)pyrimidine-5-carboxamide] | – | 0.058 µM | 5.14 µM | 4.78 µM | 5.92 µM | – |
| Nc1nc(-c2ccco2)ncc1C(=O)NCc1ncccc1F [Example 5.48, 4-Amino-N-[(3-fluoro-2-pyridyl)methyl]-2-(2-furyl)pyrimidine-5-carboxamide] | – | 0.023 µM | 0.42 µM | 7.96 µM | 3.05 µM | – |
| Nc1nc(-c2ccco2)ncc1C(=O)NCc1cccc2c1OCO2 [Example 5.52, 4-Amino-N-(1,3-benzodioxol-4-ylmethyl)-2-(2-furyl)pyrimidine-5-carboxamide] | – | 0.011 µM | 5.13 µM | 4.79 µM | 3.09 µM | – |
| Nc1cccnc1CNC(=O)c1cnc(-c2ccco2)nc1N [Example 5.53, 4-Amino-N-[(3-amino-2-pyridyl)methyl]-2-(2-furyl)pyrimidine-5-carboxamide] | – | 0.011 µM | 0.644 µM | 6.02 µM | 4.63 µM | – |
| Cc1cccnc1CNC(=O)c1nnc(-c2ccc(F)cc2)nc1N [Example 8, 5-Amino-3-(4-fluorophenyl)-N-[(3-methyl-2-pyridyl)methyl]-1,2,4-triazine-6-carboxamide] | 0.051 µM | 0.051 µM | 1.1 µM | 0.137 µM | 0.024 µM | – |
| Cc1ccc(CNC(=O)c2cnc(-c3cccc(F)c3)nc2N)cc1 [Example 10, 4-Amino-2-(3-fluorophenyl)-N-(p-tolylmethyl)pyrimidine-5-carboxamide] | 0.796 µM | 0.796 µM | 8.49 µM | 4.44 µM | 1.8 µM | – |
| Nc1nc(-c2cccc(F)c2)ncc1C(=O)NCc1cccc(Cl)c1 [Example 10.2, 4-Amino-N-[(3-chlorophenyl)methyl]-2-(3-fluorophenyl)pyrimidine-5-carboxamide] | 0.194 µM | 0.194 µM | 1.48 µM | 0.28 µM | 0.582 µM | – |
| Nc1nc(-c2cccc(F)c2)ncc1C(=O)NCc1cccc(F)c1 [Example 10.3, 4-Amino-2-(3-fluorophenyl)-N-[(3-fluorophenyl)methyl]pyrimidine-5-carboxamide] | 0.18 µM | 0.18 µM | 1.36 µM | 0.598 µM | 0.504 µM | – |
| Nc1nc(-c2cccc(F)c2)ncc1C(=O)NCc1ccc(F)cc1 [Example 10.4, 4-Amino-2-(3-fluorophenyl)-N-[(4-fluorophenyl)methyl]pyrimidine-5-carboxamide] | 0.959 µM | 0.959 µM | 6.06 µM | 3.8 µM | 1.82 µM | – |
| Nc1nc(-c2cccc(F)c2)ncc1C(=O)NCc1ccccc1Cl [Example 10.5, 4-Amino-N-[(2-chlorophenyl)methyl]-2-(3-fluorophenyl)pyrimidine-5-carboxamide] | 0.137 µM | 0.137 µM | 2.97 µM | 0.658 µM | 0.3 µM | – |
| Nc1nc(-c2cccc(F)c2)ncc1C(=O)NCc1cc(F)cc(F)c1 [Example 10.7, 4-Amino-N-[(3,5-difluorophenyl)methyl]-2-(3-fluorophenyl)pyrimidine-5-carboxamide] | 0.104 µM | 0.104 µM | 2.42 µM | 0.238 µM | 0.778 µM | – |
